Tested on: Cotton (Gossypium hirsutum) of the variety DP 1050 B2BRF
Test: Field trial: percentage of open bolls in cotton after in-furrow application (earliness)
Format: in vivo
Conditions: application rate 841 g/ha, in furrow by spreading, visual inspection
Excerpt: Cotton (Gossypium hirsutum) of the variety DP 1050 B2BRF was planted in a field trial in Brooks, Ga., United States in May 2013. Temik (comprising the active ingredient Aldicarb ([2-methyl-2-(methylthio) propionaldehyde O-(methylcarbamoyl)oxime]) and Fluopyram in combination with Imidacloprid (Velum® Total, Bayer CropScience) were applied in furrow at the same day. Temik was used for controlling insects in cotton and was provided as a Granule Release formulation with 15% (w/w) active ingredient and was applied at a rate of 841 g of active ingredient/ha by spreading. Fluopyram in combination with Imidacloprid (Velum® Total) was used as a Soluble Concentrate (SC) formulation with a concentration of 440 g/l active ingredient in total, thereof 180 g/l Fluopyram and 260 g/l Imidacloprid and these combinations were applied separately at three different rates of 321.5 g of total active ingredient/ha, 450 g of total active ingredient/ha, and 578.7 g of total active ingredient/ha by spraying. The percentage of open bolls was assessed by visual inspection at three times after application.

CNC(=O)ON=CC(C)(C)SC [Aldicarb, 2-methyl-2-(methylthio) propionaldehyde O-(methylcarbamoyl)oxime]
percentage of open bolls, 97 Days after Application BBCH 76 (97 days after application, BBCH 76): 12.5%
percentage of open bolls, 104 Days after Application BBCH 77 (104 days after application, BBCH 77): 17.5%
percentage of open bolls, 111 Days after Application BBCH 78 (111 days after application, BBCH 78): 30.0%

— patent US20180332850A1, “METHOD FOR IMPROVING EARLINESS IN COTTON” (Robert Bosch GmbH, priority 2015, published 2018)
